Here are results for 18 molecules from ChEMBL document CHEMBL3414547, “Recent advances of chroman-4-one derivatives: synthetic approaches and bioactivities” (Eur J Med Chem, 2015).

Experiment [1] concerns Candida albicans. Description: Antifungal activity against Candida albicans. It counts as functional.
Experiment [2] concerns Saccharomyces cerevisiae. In words: Antifungal activity against Saccharomyces cerevisiae. It counts as functional.
The subject of experiment [3] is Candida albicans. In words: Ratio of fluconazole MIC to compound MIC for Candida albicans. Format: functional.
For experiment [4], the system named is Saccharomyces cerevisiae. Description: Ratio of fluconazole MIC to compound MIC for Saccharomyces cerevisiae. Format: functional.
The subject of experiment [5] is Nannizzia gypsea. In words: Antifungal activity against Microsporum gypseum. It counts as functional.
The test system of the next experiment is KB. In words: Cytotoxicity against human KB cells by MTT assay. It counts as functional, cell-based.
Experiment [6] deals with MDA-MB-231. In words: Cytotoxicity against human MDA-MB-231 cells by MTT assay. It counts as functional, cell-based. A general note: Tetrazolium dyes change colour on reduction, which living cells bring about.
Experiment [7] concerns SK-N-MC. Description: Cytotoxicity against human SK-N-MC cells by MTT assay. It counts as functional, cell-based.
Experiment [8] concerns Staphylococcus aureus. Description: Antibacterial activity against methicillin-resistant Staphylococcus aureus 252. Format: functional.
The test system of experiment [9] is Staphylococcus aureus. In words: Antibacterial activity against Staphylococcus aureus. Format: functional.
For the next experiment, the system named is HUVEC. In words: Cytotoxicity against HUVEC by MTT assay. It counts as functional, cell-based. The settings on record: Homo sapiens.
The test system of experiment [10] is Aspergillus niger. Description: Antifungal activity against Aspergillus niger. Format: functional.
In experiment [11] the test system is Aspergillus niger. In words: Ratio of fluconazole MIC to compound MIC for Aspergillus niger. Format: functional.
The subject of experiment [12] is Nannizzia gypsea. Description: Ratio of fluconazole MIC to compound MIC for Microsporum gypseum. It counts as functional.
Experiment [13] relates to Candida albicans. Description: Antifungal activity against Candida albicans PTCC 5027 after 24 to 48 hrs by agar dilution method. Format: functional. For orientation: In agar dilution the substance is mixed into plates at graded concentrations.
Experiment [14] has as its system Aspergillus niger. In words: Antifungal activity against Aspergillus niger PTCC 5012 after 72 hrs by agar dilution method. It counts as functional. The settings on record: PTCC 5012, 72 h.
Experiment [15] deals with Saccharomyces cerevisiae. In words: Antifungal activity against Saccharomyces cerevisiae PTCC 5177 after 24 to 48 hrs by agar dilution method. Format: functional.
In experiment [16] the test system is Nannizzia gypsea. Description: Antifungal activity against Microsporum gypseum PTCC 5070 after 168 hrs by agar dilution method. The settings on record: PTCC 5070, 168 h. It counts as functional.
The subject of the next experiment is Mycolicibacterium aurum. In words: Antimycobacterial activity against Mycobacterium aurum. Format: functional.
For another experiment, the system named is Mycolicibacterium phlei. Description: Antimycobacterial activity against Mycobacterium phlei. It counts as functional.
In experiment [17] the test system is Mycolicibacterium fortuitum. In words: Antimycobacterial activity against Mycobacterium fortuitum. Format: functional.
Experiment [18] has as its system Mycolicibacterium smegmatis. In words: Antimycobacterial activity against Mycobacterium smegmatis. It counts as functional.
The next experiment relates to T47D. In words: Cytotoxicity against human T47D cells after 72 hrs by MTT assay. It counts as functional, cell-based.
In a further experiment the test system is MCF7. Description: Cytotoxicity against human MCF7 cells after 72 hrs by MTT assay. The settings on record: MCF7, 72 h. It counts as functional, cell-based.
Experiment [19] concerns MDA-MB-231. In words: Cytotoxicity against human MDA-MB-231 cells after 72 hrs by MTT assay. It counts as functional, cell-based. The settings on record: MDA-MB-231, 72 h.
The test system of a further experiment is K562. In words: Cytotoxicity against human K562 cells after 24 hrs by MTT assay. It counts as functional, cell-based. The settings on record: K562, 24 h.
In experiment [20] the test system is SK-N-MC. In words: Cytotoxicity against human SK-N-MC cells after 24 hrs by MTT assay. It counts as functional, cell-based.
The subject of experiment [21] is MDA-MB-231. In words: Cytotoxicity against human MDA-MB-231 cells after 24 hrs by MTT assay. Format: functional, cell-based. The settings on record: MDA-MB-231, 24 h.
The next experiment deals with Acetylcholinesterase (Homo sapiens, UniProt P22303). Description: Inhibition of AChE (unknown origin).
Chain of Acetylcholinesterase (P22303 whole entry): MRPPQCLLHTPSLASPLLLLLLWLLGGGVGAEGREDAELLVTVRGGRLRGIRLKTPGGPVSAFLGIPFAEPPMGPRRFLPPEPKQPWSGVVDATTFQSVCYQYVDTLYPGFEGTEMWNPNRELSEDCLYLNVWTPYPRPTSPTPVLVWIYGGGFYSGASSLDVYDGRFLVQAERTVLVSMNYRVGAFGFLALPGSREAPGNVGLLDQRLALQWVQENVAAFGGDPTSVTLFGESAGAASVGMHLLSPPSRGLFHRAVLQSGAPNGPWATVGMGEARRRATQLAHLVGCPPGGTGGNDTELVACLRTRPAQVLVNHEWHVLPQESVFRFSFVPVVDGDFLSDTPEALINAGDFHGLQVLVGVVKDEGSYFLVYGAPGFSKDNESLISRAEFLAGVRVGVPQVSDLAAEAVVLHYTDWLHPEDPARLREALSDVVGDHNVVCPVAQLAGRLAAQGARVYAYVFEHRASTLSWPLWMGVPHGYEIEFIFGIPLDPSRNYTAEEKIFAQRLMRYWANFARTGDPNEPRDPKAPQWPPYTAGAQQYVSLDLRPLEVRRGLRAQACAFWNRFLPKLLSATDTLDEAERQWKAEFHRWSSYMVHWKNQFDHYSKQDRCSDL

Converted amounts (≈) assume the structure as drawn.

Broadly, the MIC is the lowest concentration that inhibits growth of the organism. A higher MIC goes with weaker potency. By IC50 is commonly meant the concentration that inhibits the measured activity by half.

Turning to `C[C@@H]1Oc2cc(Cl)ccc2/C(=N\OCc2ccccc2)[C@H]1n1ccnc1.O=[N+]([O-])O`, the MIC against Candida albicans [1] is 0.25 µg/mL; against Saccharomyces cerevisiae [2] it was 0.5 µg/mL; against Nannizzia gypsea [5], 1 µg/mL. In addition, the Ratio with Candida albicans [3] and with Saccharomyces cerevisiae [4] was 32 each time.

On to `COc1ccc2c(c1)OC/C(=C\c1cc(Cl)c(OC)c(OC)c1)C2=O`, for which the IC50 in the experiment on KB, in the experiment with MDA-MB-231 [6] and with SK-N-MC [7] was 7.56 µg/mL (≈ 21 µM) in each case.

`C=C(C)C(C)c1cc(C2CC(=O)c3c(O)cc(O)cc3O2)cc(OC)c1O` (stereo not drawn) came in with an MIC against Staphylococcus aureus [8] of 16 µg/mL (≈ 43.2 µM).

In the experiment on Staphylococcus aureus [9], `COc1cc(C2CC(=O)c3c(cc(O)c(C/C=C(\C)CCC=C(C)C)c3O)O2)cc(OC)c1O` (stereo not drawn) registered an MIC of 4 µg/mL (≈ 8.54 µM).

In turn, `C=C(C)C(C)c1cc(C2CC(=O)c3c(O)cc(O)cc3O2)c(OC)cc1O` (stereo not drawn) returned an MIC against Staphylococcus aureus [8] of 16 µg/mL (≈ 43.2 µM).

In the experiment with HUVEC, `COc1ccccc1/C=C1\COc2ccccc2C1=O` yielded an IC50 of 19 µM.

With `Clc1ccc(CO/N=C2\c3ccccc3OCC2n2cncn2)cc1Cl.O=[N+]([O-])O` (stereo not drawn), the MIC against Aspergillus niger [10] and in the experiment on Nannizzia gypsea [5] was 1 µg/mL in each case. Besides, the Ratio in the experiment with Aspergillus niger [11] and with Nannizzia gypsea [12] was 16 in each case.

With `O=[N+]([O-])O.c1ccc(CO/N=C2\c3ccccc3OCC2n2ccnc2)cc1` (stereo not drawn), inhibition of growth in the experiment on Nannizzia gypsea [5] (MIC) required 2 µg/mL.

In turn, `C[C@@H]1Oc2ccccc2/C(=N\OCc2ccc(F)cc2)[C@H]1n1ccnc1.O=[N+]([O-])O` showed an MIC in the experiment with Nannizzia gypsea [5] of 1 µg/mL.

For `CC1Oc2ccccc2/C(=N/Nc2ccccc2)C1n1ccnc1` (stereo not drawn), the minimum inhibitory concentration (MIC) against Candida albicans [13], in the experiment on Aspergillus niger [14], against Saccharomyces cerevisiae [15] and against Nannizzia gypsea [16] was 8 µg/mL (≈ 25.1 µM) throughout.

In the case of `COc1ccc(CC2COc3c(ccc4c3OCO4)C2=O)cc1` (stereo not drawn), the MIC against Mycolicibacterium aurum is 32 µg/mL (≈ 102 µM); against Mycolicibacterium phlei it was 16 µg/mL (≈ 51.2 µM); in [17], 128 µg/mL (≈ 410 µM); in experiment [18] it was 256 µg/mL (≈ 820 µM).

On to `O=C1/C(=C/c2ccccc2)COc2cc3c(cc21)OCO3`, for which the IC50 in the experiment with T47D, in the experiment on MCF7 and in the experiment with MDA-MB-231 [19] was at most 9.3 µg/mL throughout.

Molecule `Clc1ccc(CO/N=C2\c3ccc(Cl)cc3OCC2n2cncn2)c(Cl)c1` (stereo not drawn) yielded an MIC with Saccharomyces cerevisiae [2] of 4 µg/mL (≈ 9.44 µM).

`O=[N+]([O-])O.c1ccc(CO/N=C2/c3ccccc3OCC2n2ccnc2)cc1` (stereo not drawn) registered an MIC against Nannizzia gypsea [5] of 2 µg/mL.

As to `COc1cc(/C=C2\COc3cc(O)ccc3C2=O)cc(Br)c1O`, the IC50 in the experiment with K562, with SK-N-MC [20] and in the experiment with MDA-MB-231 [21] was at most 3.86 µg/mL in each case.

Take `Clc1ccc(CO/N=C2\c3ccccc3OCC2n2ccnc2)cc1Cl.O=[N+]([O-])O` (stereo not drawn): the MIC with Candida albicans [1] and with Aspergillus niger [10] was at most 1 µg/mL each time.

`CC(C)=CCC/C(C)=C/Cc1c(C2CC(=O)c3c(O)cc(O)cc3O2)ccc(O)c1O` (stereo not drawn) gave an MIC in the experiment with Staphylococcus aureus [9] of 16 µg/mL (≈ 37.7 µM).

At Acetylcholinesterase, `Nc1oc2ccccc2c(=O)c1/C=C1\COc2ccccc2C1=O` yielded an IC50 of 0.27 µM.
